Literature values, collected in patent publication US20230414496A1, “BIODEGRADABLE POLYMER-NANOPARTICLE BASED IMPLANTS FOR OCULAR DRUG DELIVERY” (priority 2020, published 2023).
Read-outs that look alike come from different tables or passages of the source.

Key:
[1] = 400 μg MTX intravitreal injection
[2] = 400 μg MTX intravitreal injection, pre-clinical study; read-out: peak MTX concentration (Cmax-MTX)

CN(Cc1cnc2nc(N)nc(N)c2n1)c1ccc(C(=O)N[C@@H](CCC(=O)O)C(=O)O)cc1 [methotrexate]
total duration of MTX release ([1]; clinical study and pre-clinical study): 2 to 6 days | Cmax ([1]; clinical study, read-out: peak MTX concentration (Cmax-MTX)): 360 µM | Cmax [2]: 400 µM
